For orientation: IC50 means the point on the concentration scale where inhibition reaches its midpoint. A word on the inhibition: it is the drop in the measured response relative to a control, in per cent.

The structures appear in SMILES notation.

The target of one experiment is T1, CypA (Homo sapiens, UniProt P62937).
T1 construct: GST (N, cleaved yes); made in house; host or cells: E. coli (pGEX-KG)
The experiment is described as follows: PPIase activity of CypA, coupled chymotrypsin analysis. The class given is biochemical. Particulars: FIG. 7a; read-out: IC50 PPIase activity of CypA. How it is done:
Example 5: Analysis of Peptidyl-Prolyl Cis-Trans Isomerase Activity
The PPIase activity of CypA was determined according to a known method using the coupled chymotrypsin analysis.
The cis-trans isomerization was measured by absorbance at 390 nm in a spectrophotometer. Additionally, the remaining percentage of enzyme activity was measured at different concentrations of the inhibitor to calculate the 50% inhibition concentration (IC50) to the PPIase activity. Data was optimized via graphs by exporting using Graph Pad Prism 5.

The test system of a further experiment is HCV replicon cells. Kind of experiment: Luciferase activity in HCV replicon cells. The class given is cell-based. Particulars: Hepatitis C virus; 2 μM, 72 hours; FIG. 6; read-out: inhibition of luciferase activity of HCV. The protocol:
Additionally, a series of compounds (WJCPA-1 to WJCPA-135) having the bis-amide structure as a parent structure in common, based on the inhibitory effect of WJCPA-126 against the PPIase activity, were synthesized and their activities were confirmed. Specifically, Huh7-rep cells were treated with each of the compounds at a concentration of 2 μM for 3 days, and the expression level of NS5A was confirmed by performing an immunoblot analysis according to a known method (FIG. 5). The 32 kinds of compounds confirmed to have excellent inhibitory effect especially against the NS5A expression from the immunoblot experiment were measured regarding their inhibitory effect against luciferase activity and the results are illustrated in FIG. 6. In the same manner as in western blot, the HCV replicon cells were treated with each of the compounds at a concentration of 2 μM and incubated for 72 hours, and the total cell lysate of the cultured cells were used for the analyses of western blot and the activity of luciferase.

T1 sequence (P62937 whole entry): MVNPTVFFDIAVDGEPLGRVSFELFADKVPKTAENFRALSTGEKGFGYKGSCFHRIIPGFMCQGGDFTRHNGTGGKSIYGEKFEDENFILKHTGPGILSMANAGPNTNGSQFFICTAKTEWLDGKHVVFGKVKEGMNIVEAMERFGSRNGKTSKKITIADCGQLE

On to `COc1ccc(CCC(=O)N(c2ccc(Br)cc2)C(C(=O)NC2CCCCC2)c2ccc([N+](=O)[O-])cc2)cc1` (stereo not drawn) [WJCPA133, N-(4-bromo-phenyl)-N-[cyclohexylcarbamoyl-(4-nitro-phenyl)-methyl]-3-(4-methoxy-phenyl)-propionamide], for which the IC50 at CypA was found to be 11.2 nM.

For `Cc1ccc(C)c(C(=O)N(c2ccc(C(C)C)cc2)C(C(=O)NC2CCCCC2)c2ccc(Cl)cc2)c1` (stereo not drawn) [WJCPA30, N-[(4-chloro-phenyl)-cyclohexylcarbamoyl-methyl]-N-(4-isopropyl-phenyl)-2,5-dimethyl-benzamide], the IC50 on CypA was found to be 10.6 nM. Also, in the experiment on HCV replicon cells, the inhibition at 2 µM was at most 80%.

For the origin of these results see patent US10064843B2, “Bis-amide derivative and use thereof” (University-Industry Cooperation Group of Kyung Hee …, priority 2013, dated 2018).
